The text below walks through data of paper PMC4192315, “An Efficient Preparation of Mulberroside A from the Branch Bark of Mulberry and Its Effect on the Inhibition of Tyrosinase Activity” (PLoS ONE, 2014).

“Also recorded” adds a separate entry of the source. Like-named read-outs stand apart in the source and are kept apart here.

The target of data set [1] is diphenolase activity of the mushroom tyrosinase (Agaricus bisporus, UniProt C7FF04). The data set can be described thus: Inhibition of diphenolase activity of mushroom tyrosinase (L-DOPA as substrate, absorbance at 475 nm). Type of data set: biochemical. As to conditions: for Inhibition type: Lineweaver-Burk plots; for Inhibition mechanism: plot of V against [E]. The protocol: The measurement of the sample's inhibitory activity on diphenolase activity was based on 0.5 mmol/L L-DOPA as the substrate. The experimental procedure and calculations were identical to those above-mentioned procedures and calculations.
(§1) The concentration of the substrate was fixed in 3.0 mL of 50 mmol/L NaH2PO4-Na2HPO4 temporary buffer solution (pH 6.8); however, the amount of enzyme was changed to determine the effects of different concentrations of sample on the reaction of mushroom tyrosinase catalysing L-tyrosine or L-DOPA as substrates. Mapping the reaction rate in terms of the amount of enzyme determined whether the inhibition was a reversible reaction.
(§2) And the inhibition type and inhibition constant were determined as follows. The concentration of the enzyme solution was fixed in 3.0 mL of 50 mmol/L NaH2PO4-Na2HPO4 temporary buffer solution (pH 6.8); however, the amount of substrate (L-tyrosine or L-DOPA) was changed to determine the effects of different concentrations of effectors on the reaction of mushroom tyrosinase catalysing the substrate. Using the Lineweaver-Burk method, the curve was plotted as the reciprocal of the reaction rate 1/V against the reciprocal of the substrate 1/[S] to determine the type of inhibition. If the lines intersected on the y-axis, then competitive inhibition was indicated. If the lines intersected on the x-axis, then noncompetitive inhibition was indicated. If the lines intersected in the […] quadrant, then this inhibition was mixed type 1 or 2. If the lines were parallel, then anticompetitive inhibition was indicated. The inhibition constant of the effectors on tyrosinase (KI) and the inhibition constants of the enzyme-substrate complex (KIS) were obtained by a secondary plot of the concentration of the effectors against the slope of the line and the y-axis intercept, respectively.

Another data set has as its system intestinal bacteria. To be noted: cited from earlier work.
In another data set the target is tyrosinase. Details: method as in PMID 22878208. To be noted: read-out: IC50 of tyrosinase inhibitory activity; cited from earlier work.
Data set [2] addresses monophenolase activity of the mushroom tyrosinase (Agaricus bisporus, UniProt C7FF04). The data set can be described thus: Inhibition of monophenolase activity of mushroom tyrosinase (L-tyrosine as substrate, absorbance at 475 nm). As to conditions: for Inhibition type: Lineweaver-Burk plots; for Inhibition mechanism: plot of V against [E]. Type of data set: biochemical. The protocol:
The measurement of the sample's inhibitory activity on monophenolase activity was based on 0.5 mmol/L L-tyrosine as the substrate. The total reaction volume was 3.0 mL, which included 2.8 mL substrate solution, 100 µL different concentrations of the sample solutions and 100 µL mushroom tyrosinase solution. The substrate and enzyme solution were dissolved in 50 mmol/L NaH2PO4-Na2HPO4 temporary buffer solution (pH 6.8), with a substrate concentration of 0.5 mmol/L and with an enzyme solution concentration of 1.0 mg/mL. The samples were dissolved in DMSO. First, 100 µL sample solution was added, then 2.8 mL substrate solution, which was pre-incubated at 30°C, was added, and last, 100 µL enzyme solution was added and immediately mixed. The curve was drawn using real-time tracking of the optical density change over time at 475 nm. The measuring instrument was a Hitachi U3000 UV-visible spectrophotometer. The enzyme activity was obtained from the slope of the line. The sample concentration-response curve was plotted as the inhibition rate of samples to the enzyme against the concentrations of effectors.
as §1, §2

In data set [3] the test system is mushroom tyrosinase. The data set can be described thus: Effect on the total process of dopachrome synthesis (consecutive UV-Vis spectra, oxidation of L-tyrosine by tyrosinase). Type of data set: biochemical. As to conditions: 2.0 µmol/L sample, 0-12 min. Here is the method: The effect of tyrosinase (Worthington, USA) on the catalysis of L-tyrosine to dopachrome was determined using the method described by Hiroki, with slight modifications. The total reaction volume was 3 mL. […] The change in the absorption spectrum was determined using a Hitachi U3000 UV-visible spectrophotometer at 30°C isothermal conditions. The scanning wavelength ranged from 250 nm to 600 nm. The scanning frequency was 2 min, and the scanning time was 12 min. Thus, the changes in the absorption spectrum over time were obtained.

In data set [4] the test system is mushroom tyrosinase. To be noted: cited from earlier work.
The test system of data set [5] is mushroom tyrosinase. The data set can be described thus: Effect on the enzyme-catalysed process (N-acetyl-L-tyrosine as substrate, HPLC). Type of data set: biochemical. To be noted: 175.9 µmol/L sample, 0-60 min. Here is the method:
The effect of the enzyme-catalysed process was determined using a previously described method, with slight modifications. In total, 100 mg N-acetyl-L-tyrosine was dissolved using NaH2PO4-Na2HPO4 temporary buffer solution (pH 6.8), and the volume was set to 100 mL. In total, 0.25 mg/mL enzyme solution and a certain concentration of the sample solution were prepared. All the solutions were filtered using a syringe filter with an aperture of 0.22 µm. The components of the reaction system were as follows: 80 µL N-acetyl-L-tyrosine was mixed with 10 µL sample solution and incubated at 30°C for 5 min, and then 10 µL enzyme solution was added. During the period from 0–60 min, 20 µL mixed solution was injected into the HPLC system every 10 min to detect changes in N-acetyl-L-tyrosine. The HPLC conditions were as follows: a Shimadzu HPLC pump equipped with a Shimadzu 9082652 VP-ODS column (250 mm×4.6 mm). The detection wavelength was 275 nm. The injection volume was 10 µL, and the flow-rate was 1.0 mL/min. The mobile phases were A (water) and B (acetonitrile), which were prepared according to the following linear procedure: 0–8 min, A/B = 85:15 (v/v). All analyses were performed at room temperature.

The conditions of data set [6]: cited from earlier work.
Details of data set [7]: method as in PMID 8951165. As to conditions: rats, cited from earlier work.
Data set [8] is described as follows: Effect on the non-enzyme-catalysed process (redox reaction of L-DOPA and p-benzoquinone, HPLC). As to conditions: HPLC at 245 nm and 280 nm. The protocol: The effect of the non-enzyme-catalysed process was determined by a previously described method, with slight modifications. The HPLC conditions were as follows: a Shimadzu HPLC pump equipped with a Shimadzu VP-ODS column (250 mm×4.6 mm). The detection wavelengths were 245 nm and 280 nm. The injection volume was 20 µL, and the flow-rate was 1.0 mL/min. The mobile phases were A (0.4% aqueous acetic acid) and B (acetonitrile), which were prepared according to the following linear procedure: 0–10 min, A/B = 90:10 (v/v).

Data set [9] has as its system mushroom tyrosinase. The data set can be described thus: Mushroom tyrosinase inhibition (literature values). The format is biochemical. To be noted: monophenolase.
The mark [10] stands for this setting: MA isolated from ethanol extract of roots of Morus alba, read-out: Tyrosinase inhibitory activity.

Chain of monophenolase activity of the mushroom tyrosinase (C7FF04 1-392): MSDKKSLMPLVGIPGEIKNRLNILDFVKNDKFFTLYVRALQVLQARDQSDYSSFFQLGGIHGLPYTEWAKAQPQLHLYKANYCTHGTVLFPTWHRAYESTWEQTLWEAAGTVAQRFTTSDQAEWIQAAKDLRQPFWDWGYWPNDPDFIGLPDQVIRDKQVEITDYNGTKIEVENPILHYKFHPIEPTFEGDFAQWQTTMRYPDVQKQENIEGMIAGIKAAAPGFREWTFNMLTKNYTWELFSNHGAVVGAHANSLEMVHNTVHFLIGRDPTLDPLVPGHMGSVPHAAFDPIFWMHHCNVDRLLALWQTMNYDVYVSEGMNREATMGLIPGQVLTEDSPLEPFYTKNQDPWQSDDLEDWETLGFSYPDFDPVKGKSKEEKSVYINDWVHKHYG
Chain of diphenolase activity of the mushroom tyrosinase (C7FF04 1-392): as above

Consider `OC[C@H]1O[C@@H](Oc2cc(O)cc(/C=C/c3ccc(O[C@@H]4O[C@H](CO)[C@@H](O)[C@H](O)[C@H]4O)cc3O)c2)[C@H](O)[C@@H](O)[C@@H]1O` [MA, oxyresveratrol-4-O-β-D-glucopyranosyl-3′-O-β-D-glucopyranoside], for which the Inhibition type result in data set [1] is reported as “competitive”; in data set [2] it was “mixed type 1”; in the data set with mushroom tyrosinase [4] (L-tyrosine and L-DOPA as substrates), “competitive”. Further, the Inhibition mechanism result in data set [1] and in [2] was “reversible” in each case. The “Metabolism by intestinal bacteria” value with intestinal bacteria was “rapidly deglucosylated and transformed into OR”. Further, the IC50 was 42.1 µM on tyrosinase and 53.6 µM on mushroom tyrosinase [4] (setting [10]). Moreover, the “KIS (inhibition constant of the enzyme-substrate complex)” value in [2] is listed as 0.177 µmol/L. The “Effect on formation of dopachrome” value in the data set with mushroom tyrosinase [3] is listed as “inhibited the formation of dopachrome”. Also, the “Change in content of N-acetyl-L-tyrosine” value with mushroom tyrosinase [5] is recorded as “did not change”. The Permeability entry in [6] is “poor permeability”. Further, in data set [7] (oral administration of mulberry root acetone extract), the Bioavailability entry is given as “approximately 1%”. Further, in data set [7] (oral, most MA transformed to OR and transferred into circulating blood, estimated), the Absorption rate is 50%. In addition, in data set [8], the “Effect on redox reaction of L-DOPA and p-benzoquinone (non-enzymatic process)” value is on record as “not influenced; also recorded: no effect”.
On to `Oc1cc(O)cc(/C=C/c2ccc(O)cc2O)c1` [OR, oxyresveratrol], for which the Inhibition type entry in [1] is reported as “Non-competitive”; in [2], “mixed type 1”; in the data set with mushroom tyrosinase [4] (L-tyrosine as the substrate), “non-competitive”. Moreover, the “KIS (inhibition constant of the enzyme-substrate complex)” value in data set [1] (enzyme-substrate complex) came to 2.95 µmol/L; in data set [2] it was 0.662 µmol/L. For the same compound, the Inhibition mechanism result is given as “reversible” in data set [1], “reversible” in data set [2] and “reversibly inhibited” in the data set with mushroom tyrosinase [4] (L-tyrosine as the substrate). The “Difference in IC50 between literature and this paper” value is recorded as 8 fold in the data set on mushroom tyrosinase [9] (compared with ref 8) and “approximately 4 fold” with mushroom tyrosinase [9] (printed as lower than our experiment, compared with ref 6). Also, the “Effect on formation of dopachrome” value in the data set on mushroom tyrosinase [3] is given as “inhibited the formation of dopachrome”. Besides, the IC50 on mushroom tyrosinase [4] (setting [10]) was 0.49 µM; on mushroom tyrosinase [4] (depending on the assay conditions, read-out: IC50), 0.46 to 1.1 µM. Moreover, the “Change in content of N-acetyl-L-tyrosine” value in the data set on mushroom tyrosinase [5] is “did not change”. Besides, in data set [8], the “Effect on redox reaction of L-DOPA and p-benzoquinone (non-enzymatic process)” value is on record as “not influenced”.
